Test results taken from paper PMC11864979, “First-in-class ultralong-target-residence-time p38α inhibitors as a mitosis-targeted therapy for colorectal cancer” (Nature Cancer, 2025).
Where “and” joins values, the source holds several entries; their conditions need not be identical. Equal values may be shown once.

Experiments:
PDO6 = test: cell viability in patient-derived CRC organoids PDO6; type: cell-based, human
Method: (§1) For in vitro treatment studies, organoids were mechanically dissociated and digested using TrypLE supplemented with 100 µg ml^−1 DNaseI and 10.5 µM Y-27632 dihydrochloride (Invitrogen) at 37 °C. A total of 1,000–2,000 single cells were plated per well in white 96-well plates (Greiner) in culture medium containing 10% GFR Matrigel or Cultrex BME. The treatment with doxycycline (5 µg ml^−1), pharmacological inhibitors or corresponding volumes of DMSO was started 24 h after plating. Doxycycline was obtained from Sigma-Aldrich. […] Cell viability was measured by means of CellTiter-Glo 3D or CellTiter-Glo 2.0 reagent (Promega) according to the manufacturers’ instructions and the Infinite M Plex reader (Tecan, i-control version 3.9.1 software). Results were normalized to vehicle (DMSO) or to shNC. For cell-doubling assays, the cell number was quantified at the corresponding time points using Guava EasyCyte flow cytometer (Luminex, CytoSoft v5.2 software).

PDO7 = test: cell viability in patient-derived CRC organoids PDO7; type: cell-based, human; conditions: PDO7, 1 µM, 4 days
Method: as §1

PDO9 = test: cell viability in patient-derived CRC organoids PDO9; type: cell-based, human
Method: as §1

PDO12 = test: cell viability in patient-derived CRC organoids PDO12; type: cell-based, human; conditions: PDO12, 0.5 µM, 4 d
Method: as §1

PDO13 = test: cell viability in patient-derived CRC organoids PDO13; type: cell-based, human
Method: as §1

HCT-15 = test: cell viability in human CRC cell line HCT-15; type: cell-based
Method: (§2) To generate KAP^2D cells, KAP organoids were isolated from Matrigel, fragmented by mechanical dissociation and plated without any extracellular matrix on common cell culture dishes. Phoenix-Eco packaging cells (CRL-3214), HCT-15 (CCL-225), HCT 116 (CCL-247), COLO 205 (CCL-222), LS 174T (CL-188), RKO (CRL-2577) and HT-29 (HTB-38) were obtained from the American Type Culture Collection. The cells were cultured at 37 °C and 7% CO2 with RPMI (KAP^2D cells) or DMEM (other cell lines), supplemented with 10% FBS and penicillin–streptomycin. KAP^2D cells were authenticated using PCR (Kras locus and Trp53 locus). Phoenix-Eco packaging cells and HCT-15, HCT 116, COLO 205, LS 174T, RKO and HT-29 cells were authenticated by the provider using short tandem repeat profiling. No commonly misidentified cell lines were used. Mycoplasma contamination was excluded by a PCR-based analysis.
as §1

RKO = test: cell viability in human CRC cell line RKO; type: cell-based; conditions: ED Fig. 9g, replicates
Method: as §2, §1

[1] = Homo sapiens, 96 h, read-out: Cell viability (%)

## CNC(=O)c1ccc2c(c1)C(=O)c1ccc(Nc3ccc(F)c(NC(=O)C4CC4)c3)cc1CC2 [Compound 2015]
PDO6; Homo sapiens, 96 h, PDO6, 0.5 µM, 4 d
  viability at 0.5 µM: 20.6%
PDO6; PDO6, 0.5 µM, 4 d, 0.5 µM
  Cell viability (%): 31.27% and 20.78%
PDO6; PDO6, 1 µM, 4 days, 1 µM
  Cell viability (%): 11.74% and 11.40% and 5.21%
PDO7; [1]
  viability at 1 µM: 5.06%
PDO7; 1 µM
  Cell viability (%): 7.93% and 9.20%
PDO9; Homo sapiens, 96 h, PDO9, 0.5 µM, 4 d, read-out: Cell viability (%)
  viability at 0.5 µM: 20.8%
PDO9; Homo sapiens, 96 h, PDO9, 1 µM, 4 days
  viability at 1 µM: 9.78%
PDO9; PDO9, 0.5 µM, 4 d, 0.5 µM
  Cell viability (%): 30.12% and 37.18%
PDO9; PDO9, 1 µM, 4 days, 1 µM
  Cell viability (%): 8.84% and 14.14%
PDO12; [1]
  viability at 0.5 µM: 40%
PDO12; 0.5 µM
  Cell viability (%): 54.51% and 54.94%
PDO13; Homo sapiens, 96 h, PDO13, 0.5 µM, 4 d, read-out: Cell viability (%)
  viability at 0.5 µM: 25.4%
PDO13; Homo sapiens, 96 h, PDO13, 1 µM, 4 days, read-out: Cell viability (%)
  viability at 1 µM: 27.4%
PDO13; PDO13, 0.5 µM, 4 d, 0.5 µM
  Cell viability (%): 27.09% and 31.57%
PDO13; PDO13, 1 µM, 4 days, 1 µM
  Cell viability (%): 24.42% and 28.18%
HCT-15; 0.0137 µM, 4 d
  HCT-15 Cell viability (%): 103.10% and 103.13% and 91.18% and 87.03% and 85.56%
HCT-15; 0.0412 µM, 4 d
  HCT-15 Cell viability (%): 84.86% and 83.29% and 102.50% and 98.30% and 96.97%
HCT-15; 0.1235 µM, 4 d
  HCT-15 Cell viability (%): 82.55% and 82.85% and 86.50% and 79.01% and 79.10%
HCT-15; 0.3704 µM, 4 d
  HCT-15 Cell viability (%): 32.71% and 35.41% and 27.58% and 24.60% and 25.76%
HCT-15; 1.1111 µM, 4 d
  HCT-15 Cell viability (%): 27.21% and 26.38% and 23.73% and 21.02% and 21.11%
HCT-15; 3.3333 µM, 4 d
  HCT-15 Cell viability (%): 22.84% and 23.64% and 17.67% and 16.95% and 16.80%
HCT-15; 10.0000 µM, 4 d
  HCT-15 Cell viability (%): 23.68% and 23.79% and 17.32% and 16.59% and 17.19%
HCT-15; Homo sapiens, 96 h, HCT-15, 4 d of treatment
  IC50: 182 nM
HCT-15; Homo sapiens, HCT-15, 96 h, 0.0137 µM, 4 d, read-out: HCT-15 Cell viability (%)
  viability at 0.0137 µM: 103%
HCT-15; Homo sapiens, HCT-15, 96 h, 0.0412 µM, 4 d, read-out: HCT-15 Cell viability (%)
  viability at 0.0412 µM: 89.2%
HCT-15; Homo sapiens, HCT-15, 96 h, 0.1235 µM, 4 d, read-out: HCT-15 Cell viability (%)
  viability at 0.1235 µM: 85.9%
HCT-15; Homo sapiens, HCT-15, 96 h, 0.3704 µM, 4 d, read-out: HCT-15 Cell viability (%)
  viability at 0.3704 µM: 23.5%
HCT-15; Homo sapiens, HCT-15, 96 h, 1.1111 µM, 4 d, read-out: HCT-15 Cell viability (%)
  viability at 1.1111 µM: 31.6%
HCT-15; Homo sapiens, HCT-15, 96 h, 3.3333 µM, 4 d, read-out: HCT-15 Cell viability (%)
  viability at 3.3333 µM: 23.9%
HCT-15; Homo sapiens, HCT-15, 96 h, 10.0000 µM, 4 d, read-out: HCT-15 Cell viability (%)
  viability at 10 µM: 24.1%
RKO; 0.0137 µM, Repetition
  RKO Cell viability (%): 116.22% and 90.48% and 118.38%
RKO; 0.0137 µM, first experiment
  RKO Cell viability (%): 100.34% and 101.05%
RKO; 0.0412 µM, Repetition
  RKO Cell viability (%): 83.96% and 99.53%
RKO; 0.0412 µM, first experiment
  RKO Cell viability (%): 92.30% and 91.06%
RKO; 0.1235 µM, Repetition
  RKO Cell viability (%): 63.64% and 62.87%
